Patent publication US8017602B2, “N-(2-(2-(5-hydroxy-3-oxo-3,4-dihydro-2H-benzo[b][1,4]oxazin-8-yl)ethylamino)ethyl)-3-(phenethoxy)propanamide derivatives, processes for their preparation, pharmaceutical compositions containing them and their use in therapy” (AstraZeneca AB, priority 2008, dated 2011)
Structures can show the parent of a compound that is named as a salt.

Experiments:
Adrenergic β2 = biological target: T1, Adrenergic β2 (Homo sapiens, UniProt P07550); assay: Adrenergic β2 mediated cAMP production in H292 cells (AlphaScreen cAMP detection); type: cell-based; conditions: for β2 Int Act: Intrinsic Activity, fraction relative to the maximum activity determined for formoterol; for EC50: cAMP production, 60 min at room temperature, 300 μM rolipram, read-out: β2 pEC50 (converted)
T1 construct: Adherent H292 cells were removed from tissue culture flasks; endogenous in cells; host or cells: H292 cells
T1 sequence (P07550 whole entry): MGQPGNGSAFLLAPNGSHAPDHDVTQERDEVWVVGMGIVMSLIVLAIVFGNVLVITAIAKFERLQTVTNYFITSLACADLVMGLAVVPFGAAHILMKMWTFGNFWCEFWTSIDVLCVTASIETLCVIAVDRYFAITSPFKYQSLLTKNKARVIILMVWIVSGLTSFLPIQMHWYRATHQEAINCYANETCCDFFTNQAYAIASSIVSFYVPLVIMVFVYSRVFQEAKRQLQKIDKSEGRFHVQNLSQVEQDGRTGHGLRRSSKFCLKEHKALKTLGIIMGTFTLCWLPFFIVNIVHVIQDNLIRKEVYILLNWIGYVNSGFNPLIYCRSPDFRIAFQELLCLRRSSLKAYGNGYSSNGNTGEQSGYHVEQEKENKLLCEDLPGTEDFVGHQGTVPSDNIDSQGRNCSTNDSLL
Protocol: H292 cells were grown in 225 cm2 flasks incubator at 37° C., 5% CO2 in RPMI medium containing, 10% (v/v) FBS (foetal bovine serum) and 2 mM L-glutamine.
Adherent H292 cells were removed from tissue culture flasks by treatment with Accutase™ cell detachment solution for 15 min. Flasks were incubated for 15 min in a humidified incubator at 37° C., 5% CO2. Detached cells were re-suspended in RPMI media (containing 10% (v/v) FBS and 2 mM L-glutamine) at […]. 10000 cells in 100 μl were added to each well of a tissue-culture-treated 96-well plate and the cells incubated overnight in a humidified incubator at 37° C., 5% CO2. The culture media was removed and cells were washed twice with 100 μl assay buffer and replaced with 50 μL assay buffer (HBSS solution containing 10 mM HEPES pH7.4 and 5 mM glucose). Cells were rested at room temperature for 20 min after which time 25 μl of rolipram (1.2 mM made up in assay buffer containing 2.4% (v/v) dimethylsulphoxide) was added. Cells were incubated with rolipram for 10 min after which time test compounds were added and the cells were incubated for 60 min at room temperature. The final rolipram concentration in the assay was 300 μM and final vehicle concentration was 1.6% (v/v) dimethylsulphoxide. The reaction was stopped by removing supernatants, washing once with 100 μL assay buffer and replacing with 50 μL lysis buffer. The cell monolayer was frozen at −80° C. for 30 min (or overnight).
AlphaScreen™ cAMP Detection
The concentration of cAMP (cyclic adenosine monophosphate) in the cell lysate was determined using AlphaScreen™ methodology. The frozen cell plate was thawed for 20 min on a plate shaker then 10 μl of the cell lysate was transferred to a 96-well white plate. 40 μL of mixed AlphaScreen™ detection beads pre-incubated with biotinylated cAMP, was added to each well and the plate incubated at room temperature for 10 h in the dark. The AlphaScreen™ signal was measured using an EnVision spectrophotometer (Perkin-Elmer Inc.) with the recommended manufacturer's settings. cAMP concentrations were determined by reference to a calibration curve determined in the same experiment using standard cAMP concentrations. Concentration response curves for agonists were constructed and data was fitted to a four parameter logistic equation to determine both the pEC50 and Intrinsic Activity. Intrinsic Activity was expressed as a fraction relative to the maximum activity determined for formoterol in each experiment.

[1] = biological target: T2, recombinant human Dopamine Subtype D2s receptors (Homo sapiens, UniProt P14416); assay: Dopamine D2 selectivity binding assay ([3H]-spiperone); conditions: inhibition of [3H]-spiperone binding, human D2s membranes; read-out: D2 bind pIC50 (converted)
T2 construct: purchased Perkin Elmer
T2 sequence (P14416 1-414 isoform P14416-2): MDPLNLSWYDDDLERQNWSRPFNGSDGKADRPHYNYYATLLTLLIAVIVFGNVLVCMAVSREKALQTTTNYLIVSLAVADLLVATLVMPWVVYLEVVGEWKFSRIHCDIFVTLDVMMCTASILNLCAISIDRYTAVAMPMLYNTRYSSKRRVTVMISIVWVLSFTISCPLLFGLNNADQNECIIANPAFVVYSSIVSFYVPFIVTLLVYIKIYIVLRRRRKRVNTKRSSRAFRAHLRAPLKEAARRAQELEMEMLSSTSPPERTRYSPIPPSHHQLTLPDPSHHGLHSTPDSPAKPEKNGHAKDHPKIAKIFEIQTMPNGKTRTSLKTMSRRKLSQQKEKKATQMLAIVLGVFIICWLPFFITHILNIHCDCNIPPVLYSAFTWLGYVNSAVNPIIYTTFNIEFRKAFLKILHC
Protocol: (§1) Membranes containing recombinant human Dopamine Subtype D2s receptors were obtained from Perkin Elmer. These were diluted in Assay Buffer (50 mM HEPES, 1 mM EDTA, 120 mM NaCl, 0.1% gelatin, pH 7.4) to provide a final concentration of membranes that gave a clear window between maximum and minimum specific binding.
Assays were performed in U-bottomed 96-well polypropylene plates. 30 μL [^3H]-spiperone (0.16 nM final concentration) and 30 μl of test compound (10× final concentration) were added to each test well. For each assay plate 8 replicates were obtained for [^3H]-spiperone binding in the presence of 30 μL vehicle (10% (v/v) DMSO in Assay Buffer; defining maximum binding) or 30 μl Haloperidol (10 μM final concentration; defining non-specific binding (NSB)). Membranes were then added to achieve a final volume of 300 μL. The plates were incubated for 2 h at room temperature and then filtered onto PEI coated GF/B filter plates, pre-soaked for 1 h in Assay Buffer, using a 96-well plate Tomtec cell harvester. Five washes with 250 μl wash buffer (50 mM HEPES, 1 mM EDTA, 120 mM NaCl, pH 7.4) were performed at 4° C. to remove unbound radioactivity. The plates were dried then sealed from underneath using Packard plate sealers and MicroScint-O (50 μl) was added to each well. The plates were sealed (TopSeal A) and filter-bound radioactivity was measured with a scintillation counter (TopCount, Packard BioScience) using a 3-minute counting protocol.
(§2) Total specific binding (B0) was determined by subtracting the mean NSB from the mean maximum binding. NSB values were also subtracted from values from all other wells. […] Data was fitted to a four parameter logistic equation to determine the compound potency, which was expressed as pIC50 (negative log molar concentration inducing 50% inhibition of [^3H]-spiperone binding).

[2] = biological target: T3, recombinant human α1D receptor (Homo sapiens, UniProt P25100); assay: Adrenergic α1D selectivity binding assay ([3H]-prazosin); conditions: inhibition of [3H]-prazosin binding, HEK293 membranes, read-out: α1 bind pIC50 (converted)
T3 construct: expressed in transfected cells; host or cells: HEK293
T3 sequence (P25100 1-572): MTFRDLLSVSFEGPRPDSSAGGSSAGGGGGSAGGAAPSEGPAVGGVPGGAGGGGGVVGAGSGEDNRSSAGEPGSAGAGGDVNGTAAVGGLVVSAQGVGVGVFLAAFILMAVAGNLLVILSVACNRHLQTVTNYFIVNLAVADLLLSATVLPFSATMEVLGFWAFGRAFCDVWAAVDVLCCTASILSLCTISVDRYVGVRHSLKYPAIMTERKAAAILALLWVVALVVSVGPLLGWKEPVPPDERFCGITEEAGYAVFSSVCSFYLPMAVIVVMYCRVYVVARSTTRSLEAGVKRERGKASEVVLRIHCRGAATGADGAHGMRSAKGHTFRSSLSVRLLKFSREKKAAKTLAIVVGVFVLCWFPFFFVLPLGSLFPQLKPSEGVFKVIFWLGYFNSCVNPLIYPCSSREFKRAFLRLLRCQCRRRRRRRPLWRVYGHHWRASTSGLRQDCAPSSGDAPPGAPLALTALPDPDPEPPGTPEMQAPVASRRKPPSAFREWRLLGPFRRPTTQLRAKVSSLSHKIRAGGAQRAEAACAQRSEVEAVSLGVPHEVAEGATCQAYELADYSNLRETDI
Protocol: Membranes were prepared from human embryonic kidney 293 (HEK293) cells expressing recombinant human α1D receptor. These were diluted in Assay Buffer (50 mM HEPES, 1 mM EDTA, pH 7.4) to provide a final concentration of membranes that gave a clear window between maximum and minimum specific binding.
(§3) Assays were performed in U-bottomed 96-well polypropylene plates. 10 μl [^3H]-prazosin (0.3 nM final concentration) and 10 μl of test compound (10× final concentration) were added to each test well. For each assay plate 8 replicates were obtained for [^3H]-prazosin binding in the presence of 10 μl vehicle (10% (v/v) DMSO in Assay Buffer; defining maximum binding) or 10 μL BMY7378 (10 μM final concentration; defining non-specific binding (NSB)). Membranes were then added to achieve a final volume of 100 μL. The plates were incubated for 2 h at room temperature and then filtered onto PEI coated GF/B filter plates, pre-soaked for 1 h in Assay Buffer, using a 96-well plate Tomtec cell harvester. Five washes with 250 μl wash buffer (50 mM HEPES, 1 mM EDTA, pH 7.4) were performed at 4° C. to remove unbound radioactivity. The plates were dried then sealed from underneath using Packard plate sealers and MicroScint-O (50 μl) was added to each well. The plates were sealed (TopSeal A) and filter-bound radioactivity was measured with a scintillation counter (TopCount, Packard BioScience) using a 3-minute counting protocol.
as §2, with “[^3H]-prazosin” for “[^3H]-spiperone”

[3] = biological target: T4, recombinant human adrenergic beta 1 receptors (Homo sapiens, UniProt P08588); assay: Adrenergic β1 selectivity binding assay ([125I]-Iodocyanopindolol); conditions: inhibition of [125I]-Iodocyanopindolol binding, human β1 membranes; read-out: β1 bind p IC50 (converted)
T4 construct: purchased Euroscreen
T4 sequence (P08588 whole entry): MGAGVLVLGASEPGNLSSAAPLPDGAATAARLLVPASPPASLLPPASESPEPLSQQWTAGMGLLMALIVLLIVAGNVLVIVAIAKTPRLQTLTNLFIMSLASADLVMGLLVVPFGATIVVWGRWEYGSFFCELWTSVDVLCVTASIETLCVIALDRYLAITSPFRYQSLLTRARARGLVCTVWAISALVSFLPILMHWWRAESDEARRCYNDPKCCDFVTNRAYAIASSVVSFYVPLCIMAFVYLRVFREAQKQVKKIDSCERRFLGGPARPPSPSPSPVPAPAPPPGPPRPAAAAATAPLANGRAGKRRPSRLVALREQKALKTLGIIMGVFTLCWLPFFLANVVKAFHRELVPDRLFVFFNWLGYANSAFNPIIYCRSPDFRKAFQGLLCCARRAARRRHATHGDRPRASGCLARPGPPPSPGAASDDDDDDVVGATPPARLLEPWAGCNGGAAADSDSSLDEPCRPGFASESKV
Protocol: as §1, with “adrenergic beta 1” for “Dopamine Subtype D2s”, “Euroscreen.” for “Perkin Elmer.”
as §3, with “plates. 10 μL [^125I]-Iodocyanopindolol (0.036 nM final” for “plates. 10 μl [^3H]-prazosin (0.3 nM final”, “and 10 μL of test” for “and 10 μl of test”, “obtained for [^125I]-Iodocyanopindolol binding in” for “obtained for [^3H]-prazosin binding in”, “or 10 μl Propranolol (10 μM” for “or 10 μL BMY7378 (10 μM”, “with 250 μL wash buffer” for “with 250 μl wash buffer”, “mM EDTA, 120 mM NaCl, pH 7.4)” for “mM EDTA, pH 7.4)”
as §2, with “[^125I]-Iodocyanopindolol” for “[^3H]-spiperone”

| SMILES | β2 Int Act (Adrenergic β2) | EC50 (Adrenergic β2) | IC50 [1] | IC50 [2] | IC50 [3] |
| --- | --- | --- | --- | --- | --- |
| Cn1cc(-c2cccc(CCOCCC(=O)N(CCNCCc3ccc(O)c4c3OCC(=O)N4)C3CCCCCC3)c2)nn1 [Example 06, N-Cycloheptyl-N-(2-(2-(5-hydroxy-3-oxo-3,4-dihydro-2H-benzo[b][1,4]oxazin-8-yl)ethylamino)ethyl)-3-(3-(1-methyl-1H-1,2,3-triazol-4-yl)phenethoxy)propanamide Trifluoroacetic Acid Salt] | 0.95 | 12.6 nM | 2000 nM | 1580 nM |  |
| Cn1cc(-c2cccc(CCOCCC(=O)N(CCNCCc3ccc(O)c4c3OCC(=O)N4)C3CCCCC3)c2)cn1 [01 and 02] | 0.96 | 6.31 nM |  | 1000 nM | > 7940 nM |
| O=C1COc2c(CCNCCN(C(=O)CCOCCc3cccc(-c4ncon4)c3)C3CCCCC3)ccc(O)c2N1 [Example 11, 3-(3-(1,2,4-Oxadiazol-3-yl)phenethoxy)-N-cyclohexyl-N-(2-(2-(5-hydroxy-3-oxo-3,4-dihydro-2H-benzo[b][1,4]oxazin-8-yl)ethylamino)ethyl)propanamide Trifluoroacetic Acid Salt] | 0.85 | 10 nM | 3980 nM | 631 nM |  |

Second part, the molecule after the results:

| β2 Int Act (Adrenergic β2) | EC50 (Adrenergic β2) | IC50 [1] | IC50 [2] | IC50 [3] | SMILES |
| --- | --- | --- | --- | --- | --- |
| 1.00 | 10 nM |  | 501 nM | > 10000 nM | CC(C)[C@@H](C)N(CCNCCc1ccc(O)c2c1OCC(=O)N2)C(=O)CCOCCc1cccc(-c2cnn(C(C)C)c2)c1 [Example 20, (R)—N-(2-(2-(5-Hydroxy-3-oxo-3,4-dihydro-2H-benzo[b][1,4]oxazin-8-yl)ethylamino)ethyl)-3-(3-(1-isopropyl-1H-pyrazol-4-yl)phenethoxy)-N-(3-methylbutan-2-yl)propanamide Trifluoroacetic Acid Salt] |
| 0.98 | 6.31 nM |  | 794 nM | > 10000 nM | CCn1cc(-c2cccc(CCOCCC(=O)N(CCNCCc3ccc(O)c4c3OCC(=O)N4)[C@H](C)C(C)C)c2)cn1 [Example 23, (R)-3-(3-(1-Ethyl-1H-pyrazol-4-yl)phenethoxy)-N-(2-(2-(5-hydroxy-3-oxo-3,4-dihydro-2H-benzo[b][1,4]oxazin-8-yl)ethylamino)ethyl)-N-(3-methylbutan-2-yl)propanamide Trifluoroacetic Acid Salt] |
| 0.97 | 10 nM |  | 1000 nM | > 7940 nM | CCCn1cc(-c2cccc(CCOCCC(=O)N(CCNCCc3ccc(O)c4c3OCC(=O)N4)C3CCCC3)c2)cn1 [Example 18, N-Cyclopentyl-N-(2-(2-(5-hydroxy-3-oxo-3,4-dihydro-2H -benzo[b][1,4]oxazin-8-yl)ethylamino)ethyl)-3-(3-(1-propyl-1H -pyrazol-4-yl)phenethoxy)propanamide Trifluoroacetic Acid Salt] |
